# Key:
# Test in all cases: relative viability (nuclei count vs DMSO), 5 days (fraction); higher = more cells survive
# 201T = system: 201T
# In short: (§1)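 Relative viability is defined as nuclei in treated wells over nuclei in vehicle wells. Duplicate plates were run and medians reported. Lung cancer cell lines in 1536-well plates were dosed by pin tool one day after seeding, with one drug or with a fixed anchor-drug dose plus five library-drug doses (not always all listed) in √10 steps, and nuclei were counted after 5 days.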
# A-427 = system: A-427
# In short: as §1
# BEN = system: BEN
# In short: as §1
# COR-L23 = system: COR-L23
# In short: as §1
# EKVX = system: EKVX
# In short: as §1
# HARA = system: HARA
# In short: as §1
# HCC-15 = system: HCC-15
# In short: as §1
# HCC-44 = system: HCC-44
# In short: as §1
# HCC-827 = system: HCC-827
# In short: as §1
# NCI-H1437 = system: NCI-H1437
# In short: as §1
# NCI-H1650 = system: NCI-H1650
# In short: as §1
# NCI-H1666 = system: NCI-H1666
# In short: as §1
# NCI-H1792 = system: NCI-H1792
# In short: as §1
# NCI-H1975 = system: NCI-H1975
# In short: as §1
# NCI-H2342 = system: NCI-H2342
# In short: as §1
# NCI-H23 = system: NCI-H23
# In short: as §1
# NCI-H358 = system: NCI-H358
# In short: as §1
# NCI-H441 = system: NCI-H441
# In short: as §1
# NCI-H596 = system: NCI-H596
# In short: as §1
# NCI-H650 = system: NCI-H650
# In short: as §1
# NCI-H838 = system: NCI-H838
# In short: as §1
# SK-MES-1 = system: SK-MES-1
# In short: as §1
# SW 900 = system: SW 900
# In short: as §1
compound,measurement,setting,value
COc1nc(C)cnc1NS(=O)(=O)c1cccnc1-c1ccc(-c2nnco2)cc1 [Zibotentan] + O=C(c1cc(Cc2n[nH]c(=O)c3ccccc23)ccc1F)N1CCN(C(=O)C2CC2)CC1 [Olaparib] (partner 8 µM),relative viability,201T; first compound 0.08 µM,0.819
same,relative viability,201T; first compound 0.253 µM,0.828
same,relative viability,201T; first compound 0.8 µM,0.846
same,relative viability,201T; first compound 2.53 µM,0.876
same,relative viability,A-427; first compound 0.08 µM,0.755
same,relative viability,A-427; first compound 0.253 µM,0.704
same,relative viability,A-427; first compound 0.8 µM,0.64
same,relative viability,A-427; first compound 2.53 µM,0.799
same,relative viability,BEN; first compound 0.08 µM,1.15
same,relative viability,BEN; first compound 0.253 µM,1.09
same,relative viability,BEN; first compound 0.8 µM,1.09
same,relative viability,BEN; first compound 2.53 µM,0.958
same,relative viability,COR-L23; first compound 0.08 µM,0.324
same,relative viability,COR-L23; first compound 0.253 µM,0.284
same,relative viability,COR-L23; first compound 0.8 µM,0.395
same,relative viability,COR-L23; first compound 2.53 µM,0.352
same,relative viability,EKVX; first compound 0.08 µM,0.909
same,relative viability,EKVX; first compound 0.253 µM,0.733
same,relative viability,EKVX; first compound 0.8 µM,0.799
same,relative viability,EKVX; first compound 2.53 µM,0.917
same,relative viability,HARA; first compound 0.08 µM,0.856
same,relative viability,HARA; first compound 0.8 µM,0.455
same,relative viability,HARA; first compound 2.53 µM,0.883
same,relative viability,HCC-15; first compound 0.08 µM,0.717
same,relative viability,HCC-15; first compound 0.253 µM,0.703
same,relative viability,HCC-15; first compound 0.8 µM,0.774
same,relative viability,HCC-15; first compound 2.53 µM,0.649
same,relative viability,HCC-44; first compound 0.08 µM,0.958
same,relative viability,HCC-44; first compound 0.253 µM,0.965
same,relative viability,HCC-44; first compound 0.8 µM,0.98
same,relative viability,HCC-44; first compound 2.53 µM,0.957
same,relative viability,HCC-827; first compound 0.08 µM,0.64
same,relative viability,HCC-827; first compound 0.253 µM,0.647
same,relative viability,HCC-827; first compound 0.8 µM,0.667
same,relative viability,HCC-827; first compound 2.53 µM,0.669
same,relative viability,NCI-H1437; first compound 0.08 µM,0.64
same,relative viability,NCI-H1437; first compound 0.253 µM,0.629
same,relative viability,NCI-H1437; first compound 0.8 µM,0.617
same,relative viability,NCI-H1437; first compound 2.53 µM,0.621
same,relative viability,NCI-H1650; first compound 0.08 µM,0.803
same,relative viability,NCI-H1650; first compound 0.8 µM,0.757
same,relative viability,NCI-H1650; first compound 2.53 µM,0.682
same,relative viability,NCI-H1666; first compound 0.08 µM,0.753
same,relative viability,NCI-H1666; first compound 0.253 µM,0.726
same,relative viability,NCI-H1666; first compound 0.8 µM,0.765
same,relative viability,NCI-H1666; first compound 2.53 µM,0.728
same,relative viability,NCI-H1792; first compound 0.08 µM,0.235
same,relative viability,NCI-H1792; first compound 0.253 µM,0.408
same,relative viability,NCI-H1792; first compound 0.8 µM,0.323
same,relative viability,NCI-H1792; first compound 2.53 µM,0.373
same,relative viability,NCI-H1975; first compound 0.08 µM,0.855
same,relative viability,NCI-H1975; first compound 0.253 µM,0.742
same,relative viability,NCI-H1975; first compound 0.8 µM,0.749
same,relative viability,NCI-H1975; first compound 2.53 µM,0.765
same,relative viability,NCI-H2342; first compound 0.08 µM,0.407
same,relative viability,NCI-H2342; first compound 0.253 µM,0.44
same,relative viability,NCI-H2342; first compound 0.8 µM,0.504
same,relative viability,NCI-H2342; first compound 2.53 µM,0.389
same,relative viability,NCI-H23; first compound 0.08 µM,0.266
same,relative viability,NCI-H23; first compound 0.253 µM,0.235
same,relative viability,NCI-H23; first compound 0.8 µM,0.242
same,relative viability,NCI-H23; first compound 2.53 µM,0.251
same,relative viability,NCI-H358; first compound 0.08 µM,0.735
same,relative viability,NCI-H358; first compound 0.253 µM,0.323
same,relative viability,NCI-H358; first compound 2.53 µM,0.689
same,relative viability,NCI-H441; first compound 0.08 µM,0.549
same,relative viability,NCI-H441; first compound 0.253 µM,0.517
same,relative viability,NCI-H441; first compound 0.8 µM,0.638
same,relative viability,NCI-H441; first compound 2.53 µM,0.576
same,relative viability,NCI-H596; first compound 0.08 µM,0.661
same,relative viability,NCI-H596; first compound 0.253 µM,0.595
same,relative viability,NCI-H596; first compound 0.8 µM,0.831
same,relative viability,NCI-H596; first compound 2.53 µM,0.774
same,relative viability,NCI-H650; first compound 0.08 µM,0.413
same,relative viability,NCI-H650; first compound 0.253 µM,0.395
same,relative viability,NCI-H650; first compound 0.8 µM,0.52
same,relative viability,NCI-H650; first compound 2.53 µM,0.443
same,relative viability,NCI-H838; first compound 0.08 µM,0.756
same,relative viability,NCI-H838; first compound 0.253 µM,0.747
same,relative viability,NCI-H838; first compound 0.8 µM,0.827
same,relative viability,NCI-H838; first compound 2.53 µM,0.849
same,relative viability,SK-MES-1; first compound 0.08 µM,0.705
same,relative viability,SK-MES-1; first compound 0.253 µM,0.465
same,relative viability,SK-MES-1; first compound 0.8 µM,0.68
same,relative viability,SK-MES-1; first compound 2.53 µM,0.787
same,relative viability,SW 900; first compound 0.08 µM,0.922
same,relative viability,SW 900; first compound 0.253 µM,0.647
same,relative viability,SW 900; first compound 0.8 µM,0.853
same,relative viability,SW 900; first compound 2.53 µM,0.81
